Data from ChEMBL document CHEMBL1129703, “Lipophilic bioisosteres of nucleoside triphosphates” (Bioorg Med Chem Lett, 1996).

What was measured:
[1] = test system: C8166; experiment: Concentration of compound required to reduce cell viability of C8166 cells by 50%; type: functional; conditions: Homo sapiens
[2] = test system: CCRF-CEM; experiment: Anti-HIV activity against HIV-2 infected CEM/0 cell lines.; type: functional, cell-based; conditions: Homo sapiens
[3] = test system: JM1; experiment: Concentration required to reduce cell viability of JM cells by 50%; type: functional, Homo sapiens
[4] = test system: CCRF-CEM; experiment: Anti-HIV activity against HIV-1 infected CEM/0 cell lines.; type: functional, cell-based; conditions: Homo sapiens
[5] = test system: CCRF-CEM; experiment: Concentration required to reduce cell viability of CEM/0 cells by 50%; type: functional; conditions: Homo sapiens
[6] = target: Human immunodeficiency virus type 1 reverse transcriptase (Human immunodeficiency virus 1, UniProt Q72547); experiment: Inhibition of HIV-1 reverse transcriptase
[7] = test system: C8166; experiment: Anti-HIV activity against HIV-1 infected C8166 cell lines; type: functional, cell-based, Human immunodeficiency virus 1
[8] = test system: CEM-TK(-); experiment: Anti-HIV activity against HIV-2 infected CEM/TK- cell lines.; conditions: Homo sapiens
[9] = test system: JM1; experiment: Anti-HIV activity against HIV-1 infected JM cell lines; type: functional, cell-based
[10] = test system: MT2; experiment: Anti-HIV activity against HIV-2 infected MT2 cell lines; type: functional, cell-based, Homo sapiens
[11] = test system: C8166; experiment: Cytotoxicity in C8166 cell lines; type: functional, Homo sapiens
[12] = test system: MT2; experiment: Concentration required to reduce cell viability of MT2 cells by 50%; type: functional; conditions: Homo sapiens

Structure (SMILES)	CC50 [1]	EC50 [2]	CC50 ([3]; Homo sapiens, JM1)	EC50 [4]	CC50 [5]	IC50 [6]	EC50 ([7]; Homo sapiens, C8166)	EC50 [8]	EC50 ([9]; Homo sapiens, JM1)	EC50 ([10]; mt2)	EC50 ([7]; c8166)	EC50 ([9]; jm1)	EC50 ([10]; Homo sapiens, MT2)	CC50 ([11]; Homo sapiens, C8166)	CC50 [12]	CC50 [3]	CC50 [11]
CSCOC1(C)COC(C)(CC(=O)OC[C@H]2O[C@@H](n3cc(C)c(=O)[nH]c3=O)C[C@@H]2N=[N+]=[N-])C1 (some centres undefined)	500 µM	0.14 µM	500 µM	0.2 µM	233 µM	> 100 µM	0.32 µM	> 250 µM	100 µM	–	–	–	–	–	–	–	–
Cc1cn([C@H]2C=C[C@@H](CNC(=O)CC3(C)CC(C)(O)CO3)O2)c(=O)[nH]c1=O (stereo in doubt; form 2)	–	–	–	–	–	–	–	–	–	> 500 µM	> 500 µM	500 µM	–	–	–	–	–
Cc1cn([C@H]2C[C@H](O[Si](C)(C)C(C)(C)C)[C@@H](COC(=O)CC3(C)CC(C)(O)CO3)O2)c(=O)[nH]c1=O (stereo in doubt; form 1)	–	–	200 µM	–	–	–	20 µM	–	20 µM	–	–	–	20 µM	200 µM	200 µM	–	–
CSCOC1(C)COC(C)(CC(=O)NC[C@@H]2C=C[C@H](n3cc(C)c(=O)[nH]c3=O)O2)C1 (some centres undefined)	–	–	> 1000 µM	–	–	–	400 µM	–	500 µM	–	–	–	200 µM	> 1000 µM	> 1000 µM	–	–
CSCOC1(C)COC(C)(CC(=O)O)C1 (centres undefined)	–	> 250 µM	> 1000 µM	> 250 µM	> 250 µM	> 100 µM	> 1000 µM	> 250 µM	> 1000 µM	–	–	–	–	> 1000 µM	–	–	–
Cc1cn([C@H]2C[C@H](O[Si](C)(C)C(C)(C)C)[C@@H](CO)O2)c(=O)[nH]c1=O	–	–	400 µM	–	–	–	16 µM	–	20 µM	–	–	–	–	400 µM	–	–	–
Cc1cn([C@H]2C[C@H](N=[N+]=[N-])[C@@H](CO)O2)c(=O)[nH]c1=O [ZIDOVUDINE]	–	–	> 1000 µM	–	> 250 µM	> 100 µM	–	> 250 µM	200 µM	–	–	–	–	> 1000 µM	–	–	–
Cc1cn([C@H]2C[C@H](N=[N+]=[N-])[C@@H](COC(=O)CC3(C)CC(C)(O)CO3)O2)c(=O)[nH]c1=O (stereo in doubt; 13)	–	–	–	–	–	–	–	–	–	–	0.04 µM	200 µM	–	–	–	1000 µM	500 µM
Cc1cn([C@H]2C[C@H](O[Si](C)(C)C(C)(C)C)[C@@H](COC(=O)CC3(C)CC(C)(O)CO3)O2)c(=O)[nH]c1=O (stereo in doubt; form 2)	–	–	–	–	–	–	–	–	–	10 µM	10 µM	10 µM	–	–	–	–	–
CSCO[C@@]1(C)CO[C@](C)(CC(=O)OC[C@H]2O[C@@H](N3C=C(C)CNC3=O)C[C@@H]2O)C1	400 µM	3.1 µM	400 µM	6 µM	> 250 µM	> 100 µM	16 µM	> 250 µM	200 µM	–	–	–	–	–	–	–	–
CSCO[C@@]1(C)CO[C@@](C)(CC(=O)OC[C@H]2O[C@@H](n3cc(C)c(=O)[nH]c3=O)C[C@@H]2O[Si](C)(C)C(C)(C)C)C1	–	> 10 µM	80 µM	> 10 µM	36 µM	> 100 µM	16 µM	–	16 µM	–	–	–	–	80 µM	–	–	–
CSCO[C@@]1(C)CO[C@@](C)(CC(=O)OC[C@H]2O[C@@H](n3cc(C)c(=O)[nH]c3=O)C[C@@H]2O)C1	–	88 µM	400 µM	200 µM	> 250 µM	> 100 µM	200 µM	> 250 µM	200 µM	–	–	–	–	1000 µM	–	–	–
Cc1cn([C@H]2C[C@H](N=[N+]=[N-])[C@@H](COC(=O)CC3(C)CC(C)(O)CO3)O2)c(=O)[nH]c1=O (stereo in doubt; form 2)	–	–	–	–	–	–	–	–	–	4 µM	8 µM	400 µM	–	> 1000 µM	> 1000 µM	400 µM	–
CC1=CN([C@H]2C[C@H](O)[C@@H](COC(=O)C[C@@]3(C)C[C@@](C)(O)CO3)O2)C(=O)NC1	–	–	> 500 µM	–	–	–	8 µM	–	40 µM	–	–	–	4 µM	> 500 µM	> 1000 µM	–	–
Cc1cn([C@H]2C[C@H](N=[N+]=[N-])[C@@H](COC(=O)CC3(C)CC(C)(O)CO3)O2)c(=O)[nH]c1=O (stereo in doubt; form 1)	–	–	–	–	–	–	–	–	–	0.064 µM	0.064 µM	100 µM	–	–	–	> 1000 µM	–
Cc1cn([C@H]2C=C[C@@H](CNC(=O)CC3(C)CC(C)(O)CO3)O2)c(=O)[nH]c1=O (stereo in doubt; form 1)	–	–	> 500 µM	–	–	–	500 µM	–	–	–	–	200 µM	500 µM	> 500 µM	> 500 µM	–	–
Cc1cn([C@H]2C[C@H](O)[C@@H](COC(=O)C[C@@]3(C)C[C@@](C)(O)CO3)O2)c(=O)[nH]c1=O	–	–	> 1000 µM	–	–	–	> 1000 µM	–	500 µM	–	–	–	1000 µM	> 1000 µM	> 1000 µM	–	–
